{
  "source": "patent US6514964B1",
  "about": "“Fused cycloheptane and fused azacycloheptane compounds and their methods of use” (Amgen Inc., priority 1999, dated 2003)",
  "data": [
    {"tested_on": "human umbilical cord endothelial cells (HUVEC)", "assay": "HUVEC proliferation assay and/or HUVEC adhesion assay", "format": "cell-based", "conditions": "bound stated for the listed compounds", "procedure": "HUVEC Proliferation Assay\n1. Coat 3 NUNC polystyrene 96 well plate (VWR, 62409-120; lids 62409-118) with vitronectin (purified internally), fibronectin (Collaborative Biomed 40008A) or fibrinogen (Calbiochem 341578) 50 ng/well in 50 μl PBS, 1 hr @ RT.\na. rinse with 5 mls PBS (no Ca, Mg)\n3. Rinse vitronectin plates 1× in 200 μl PBS −/− and add 3000 cells per well in 100 ul growth medium (EBM2 (Clonetics, CC-3156)+EGM2 bullet kit (CC-4176)).\n4. Incubate 24 hours at 37° C. to allow attachment.\n5. Remove growth medium and add 100 μl growth medium+drugs (25 μM and down by five fold steps in DMSO-0.25% final DMSO concentration).\n6. Incubate for 3 days changing media (+drugs).\n7. Remove non-adherent cells on Friday with Raindance 12 well plate washer.\n8. Wash twice with 200 μl PBS (+Mg & Ca).\n9. Tap out excess liquid.\n10. Freeze @ −70° C. for 30 minutes.\n11. Thaw plate and add 150 μl CyQuant fluorescent dye (Molecular Probes C-7026).\n12. Read after 4 minutes @ 485λ (excitation), 530λ (emission).\n1. Coat 2 NUNC polystyrene 96 well plates (VWR, 62409-120; lids 62409-118) with 50 μl vitronectin (purified internally) at 50 ng/well in PBS (−Mg & Ca), for 1 hour @ 37° C.\n2. Rinse with PBS & block with 150 μl PBS/1% BSA (Sigma A8918), 1 hour at @ 37° C.\n3. Prepare drug dilutions:\na. 400 fold concentrate in 100% DMSO\nb. 0.25% DMSO [assay]final\nc. 10 mM & down (25 μMfinal & down)\nd. dilute 1 μl of 400 fold conc into 200 μl adhesion media\na. rinse with 5 ml PBS (no Ca, Mg)\n6. Rinse blocking buffer from assay plate and add 50 μl of drug dilutions.\n7. Resuspend cells in adhesion media, count and add 2e4 cells/well in 50 μl (4e5/ml).\n8. Incubate 60 minutes @ 37° C.\n9. Remove non-adherent cells with Raindance 12 well plate washer.\n10. Wash twice with 200 μl PBS (+Mg & Ca)\n11. Tap out excess liquid.\n12. Freeze @ −70° C. for 30 minutes to overnite.\n13. Thaw plate and add 150 μl CyQuant fluorescent dye (Molecular Probes C-7026).\n14. Read after 2-5 minutes @ 485λ (excitation), 530λ (emission).\nAdhesion medium: Media 199 (which contains […] and 0.8 mM MgSO4), 0.5% BSA, 10 mM HEPES, 1 mM MgCl2, and 1 mM MnCl2", "units": {"IC50": "µM"}, "values": [
      {"smiles": "O=C(O)CC1CCN(S(=O)(=O)NCCc2ccc3c(n2)NCCC3)Cc2ccccc21", "note": "(centres unmarked) [Example 45, 2-(2-(((2-(1,2,3,4-tetrahydropyridino(2,3-b)pyridin-7-yl)ethyl)amino)sulfonyl)-1H,3H,4H,5H-benzo[e]azain-5-yl)acetic acid]", "IC50": "≤ 30"},
      {"smiles": "O=C(O)CCC1CCN(S(=O)(=O)NCCc2ccc3c(n2)NCCC3)Cc2ccccc21", "note": "(centres unmarked) [Example 47]", "IC50": "≤ 30"},
      {"smiles": "O=C(O)C[C@H]1CCN(C(=O)NCCCc2ccc3c(n2)NCCC3)Cc2ccccc21", "note": "[Example 52, 2-((5R)-2-(N-(3-(1,2,3,4-tetrahydropyridino(2,3-b)pyridin-7-yl)prop-1-yl)carbamoyl)-1H,3H,4H,5H-benzo[e]azapin-5-yl)acetic acid]", "IC50": "≤ 30"},
      {"smiles": "O=C(O)C[C@H]1CCN(C(=O)NCCc2ccc3c(n2)NCCC3)Cc2ccccc21", "note": "[Example 53, 2-((5R)-2-(N-(3-(1,2,3,4-tetrahydropyridino(2,3-b)pyridin-7-yl)ethyl)carbamoyl)-1H,3H,4H,5H-benzo[e]azapin-5-yl)acetic acid]", "IC50": "≤ 30"},
      {"smiles": "O=C(O)C[C@@H]1CCN(C(=O)NCCc2ccc3c(n2)NCCC3)Cc2ccccc21", "note": "[Example 54, 2-((5S)-2-(N-(3-(1,2,3,4-tetrahydropyridino(2.3-b)pyridin-7-yl)ethyl)carbamoyl)-1H,3H,4H,5H-benzo[e]azapin-5-yl)acetic acid]", "IC50": "≤ 30"},
      {"smiles": "O=C(O)C[C@@H]1CCN(C(=O)CCCc2ccc3c(n2)NCCC3)Cc2ccccc21", "note": "[Example 55]", "IC50": "≤ 30"},
      {"smiles": "O=C(O)CC1CCN(C(=O)CCCc2ccc3c(n2)NCCC3)Cc2ccccc21", "note": "(centres unmarked) [Example 56, 2-[2-(4-(1,2,3,4-tetrahydropyridino[2,3-b]pyridin-7-yl)butanoyl)-1H,3H,4H,5H-benzo[e]azepin-5-yl]acetic acid]", "IC50": "≤ 30"},
      {"smiles": "O=C(O)CC1Cn2cc(C(=O)NCCc3ccc4c(n3)NCCC4)nc2Cc2ccccc21", "note": "(centres unmarked) [Example 63, 2-{2-[N-(2-(1,2,3,4-tetrahydropyridino [2,3-b]pyridin-7-yl)ethyl)carbamoyl]-4H,5H,10H-benzo[d]imidazolo[1,2-a]azepin-5-yl}acetic acid]", "IC50": "≤ 30"},
      {"smiles": "CC(C)N(CCc1ccc2c(n1)NCCC2)C(=O)c1cn2c(n1)Cc1ccccc1C(CC(=O)O)C2", "note": "(centres unmarked) [Example 64, 2-{2-[N-(methylethyl)-N-(2-(1,2,3,4-tetrahydropyridino[2,3-b]pyridin-7-yl)ethyl)carbamoyl]-4H,5H,10H-benzo[d]imidazolo[1,2-a]azepin-5-yl}acetic acid]", "IC50": "≤ 30"},
      {"smiles": "CC(C)N(Cc1cnc2c(c1)CCCN2)C(=O)c1cn2c(n1)Cc1ccccc1C(CC(=O)O)C2", "note": "(centres unmarked) [Example 65, 2-{2-[N-(methylethyl)-N-(1,2,3,4tetrahydropyridino[2,3-b]pyridine-6-ylmethyl)carbamoyl]-4H,5H,10H-benzo[d]imidazolo[1,2-a]azepin-5-yl}acetic acid]", "IC50": "≤ 30"},
      {"smiles": "O=C(O)CC1Cn2cc(C(=O)NCc3cnc4c(c3)CCCN4)nc2Cc2ccccc21", "note": "(centres unmarked) [Example 66, 2-{2-[N-(1,2,3,4-tetrahydropyridino [2,3-b]pyridin-6-ylmethyl)carbamoyl]-4H,5H,10H-benzo[d]imidazolo[1,2-a]azepin-5-yl}acetic acid]", "IC50": "≤ 30"},
      {"smiles": "CN(CCCNc1ccccn1)C(=O)c1cn2c(n1)Cc1ccccc1C(CC(=O)O)C2", "note": "(centres unmarked) [Example 67, 2-(2-{N-methyl-N-[3-(2-pyridylamino)propyl]carbamoyl}-4H,5H,10H-benzo[d]imidazolo[1,2-a]azepin-5-yl)acetic acid]", "IC50": "≤ 30"},
      {"smiles": "COc1ccc2c(c1)CN(C(=O)NCCCc1ccc3c(n1)NCCC3)CCC2CC(=O)O", "note": "(centres unmarked) [Example 71, 2-(8-methoxy-2-(N-(3-(1,2,3,4-tetrahydropyridino[2,3,b]pyridin-7-yl)propyl)carbamoyl)-1H,3H,4H,5H-benzo[e]azaperhydroepin-5-yl) acetic acid]", "IC50": "≤ 30"},
      {"smiles": "O=C(O)CC1CCN(C(=O)NCCCc2ccc3c(n2)NCCC3)Cc2cc(OCc3ccccc3)ccc21", "note": "(centres unmarked) [Example 72]", "IC50": "≤ 30"},
      {"smiles": "O=C(O)CC1CCN(C(=O)NCCCc2ccc3c(n2)NCCC3)Cc2cc(-c3ccccc3)ccc21", "note": "(centres unmarked) [Example 73, 2-(8-phenyl-2-(N-(3-(1,2,3,4-tetrahydropyridino[2,3,b]pyridin-7-yl)propyl)carbamoyl)-1H,3H,4H,5H-benzo[e]azaperhydroepin-5-yl) acetic acid]", "IC50": "≤ 30"},
      {"smiles": "O=C(O)CC1CCN(C(=O)NCCCCNC2=NCCN2)Cc2ccccc21", "note": "(centres unmarked) [Example 75, 2-(2-(N-(4-(4,5-dihydroimidazo-2-yl)aminobut-1-yl)carbamoyl)-1H,3H,4H-5H-benzo[e]azapin-5-yl)acetic acid]", "IC50": "≤ 30"},
      {"smiles": "O=C(O)CC1CCN(C(=O)NCCCc2ccc3c(n2)NCCC3)Cc2cc(Cl)ccc21", "note": "(centres unmarked) [Example 78, 2-{8-Chloro-2-[N-(3-(1,2,3,4-tetrahydropyridino[2,3-b]pyridin-7-yl)propyl)carbamoyl]-1H,3H,4H,5H-benzo[e]azepin-5-yl}acetic acid]", "IC50": "≤ 30"},
      {"smiles": "O=C(O)CC1CCN(C(=O)NCCCc2ccc3c(n2)NCCC3)Cc2cc(Br)ccc21", "note": "(centres unmarked) [Example 79, 2-{8-Bromo-2-[N-(3-(1,2,3,4-tetrahydropyridino[2,3-b]pyridin-7-yl)propyl)carbamoyl]-1H,3H,4H,5H-benzo[e]azepin-5-yl}acetic acid]", "IC50": "≤ 30"},
      {"smiles": "O=C(O)CC1CCN(C(=O)NCCCc2ccc3c(n2)NCCC3)Cc2cc(Br)c(Br)cc21", "note": "(centres unmarked) [Example 80, 2-{7,8-Dibromo-2-[N-(3-(1,2,3,4-tetrahydropyridino[2,3-b]pyridin-7-yl)propyl)carbamoyl]-1H,3H,4H,5 H-benzo[e]azepin-5-yl}acetic acid]", "IC50": "≤ 30"},
      {"smiles": "CS(=O)(=O)Nc1ccc2c(c1)CN(C(=O)NCCCc1ccc3c(n1)NCCC3)CCC2CC(=O)O", "note": "(centres unmarked) [Example 81, 2-{8-[(Methylsulfonyl)amino]-2-[N-(3-(1,2,3,4-tetrahydropyridino[2,3-b]pyridin-7-yl)Propyl)carbamoyl]-1H,3H,4H,5H-benzo[e]azepin-5-yl}acetic acid]", "IC50": "≤ 30"},
      {"smiles": "O=C(O)CC1CCN(C(=O)NCCCc2ccc3c(n2)NCCC3)Cc2cc(NS(=O)(=O)c3ccccc3)ccc21", "note": "(centres unmarked) [Example 82, 2-{8-[(Phenylsulfonyl)amino]-2-[N-(3-(1,2,3,4-tetrahydropyridino[2,3-b]pyridin-7-yl)propyl)carbamoyl]-1H,3H,4H,5H-benzo[e]azepin-5-yl}acetic acid]", "IC50": "≤ 30"},
      {"smiles": "O=CNc1ccc2c(c1)CN(C(=O)NCCCc1ccc3c(n1)NCCC3)CCC2CC(=O)O", "note": "(centres unmarked) [Example 83, 2-{8-Carbonylamino-2-[N-(3-(1,2,3,4-tetrahydropyridino[2,3-b]pyridin-7-yl)propyl)carbamoyl]-1H,3H,4H,5H-benzo[e]azepin-5-yl}acetic acid]", "IC50": "≤ 30"},
      {"smiles": "CN(C)c1ccc2c(c1)CN(C(=O)NCCCc1ccc3c(n1)NCCC3)CCC2CC(=O)O", "note": "(centres unmarked) [Example 84, 2-{8-(Dimethylamino)-2-[N-(3-(1,2,3,4-tetrahydropyridino[2,3-b]pyridin-7-yl)propyl)carbamoyl]-1H,3H,4H,5H-benzo[e]azepin-5-yl}acetic acid]", "IC50": "≤ 30"}
    ]}
  ]
}
